How the values were obtained:
Format in all cases: biochemical
activated JNK3 = target: T1, activated JNK3 (Homo sapiens, UniProt P53779); assay: JNK inhibition assay (spectrophotometric coupled-enzyme assay); settings: for Ki: 10 nM activated JNK3, 10 μM ATP, read-out: Activity in the JNK3 Inhibition Assay (Ki rating A-C)
T1 construct: One such construct encodes amino acid residues Ser40-Glu402 of JNK3α1 and is preceded by Met and Gly residues; Met-Gly (initiator methionine and added glycine) (N); made in house; host or cells: E. coli BL21 (DE3)
T1 sequence (P53779 40-402): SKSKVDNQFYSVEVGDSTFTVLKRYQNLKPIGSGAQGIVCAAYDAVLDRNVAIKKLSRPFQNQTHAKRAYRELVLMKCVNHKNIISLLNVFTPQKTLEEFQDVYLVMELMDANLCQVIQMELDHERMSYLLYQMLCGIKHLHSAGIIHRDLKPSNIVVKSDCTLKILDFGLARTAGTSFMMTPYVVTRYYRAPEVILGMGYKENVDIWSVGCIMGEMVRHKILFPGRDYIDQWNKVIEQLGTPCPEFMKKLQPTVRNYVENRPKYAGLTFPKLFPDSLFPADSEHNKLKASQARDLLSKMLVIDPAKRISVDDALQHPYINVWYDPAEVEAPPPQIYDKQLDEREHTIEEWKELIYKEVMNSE
How it was run: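 Activated (doubly phosphorylated, MKK7(DD)-activated) human JNK3, 10 nM, preincubated 10 min at 30 °C with inhibitor in 0.1 M HEPES pH 7.5, 10 mM MgCl2, 200 μM EGF receptor peptide, PK/LDH-coupled. Started with 10 μM ATP; A340 decrease followed at 30 °C. Ki from competitive inhibition model fit.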

[1] = target: T2, full length recombinant human Src kinase (Homo sapiens, UniProt P12931); assay: Src inhibition assay (33P incorporation into poly Glu-Tyr); settings: for inhibition at 2 µM: at a 2 μM inhibitor concentration, read-out: Activity in the SRC Inhibition Assay (percent inhibition rating D-F); for Ki: 10 μM ATP, read-out: Activity in the SRC Inhibition Assay (Ki rating A-C)
T2 construct: full length recombinant human Src kinase; purchased Upstate Biotechnology 14-117; host or cells: baculo viral cells (baculovirus expression)
T2 sequence (P12931 whole entry): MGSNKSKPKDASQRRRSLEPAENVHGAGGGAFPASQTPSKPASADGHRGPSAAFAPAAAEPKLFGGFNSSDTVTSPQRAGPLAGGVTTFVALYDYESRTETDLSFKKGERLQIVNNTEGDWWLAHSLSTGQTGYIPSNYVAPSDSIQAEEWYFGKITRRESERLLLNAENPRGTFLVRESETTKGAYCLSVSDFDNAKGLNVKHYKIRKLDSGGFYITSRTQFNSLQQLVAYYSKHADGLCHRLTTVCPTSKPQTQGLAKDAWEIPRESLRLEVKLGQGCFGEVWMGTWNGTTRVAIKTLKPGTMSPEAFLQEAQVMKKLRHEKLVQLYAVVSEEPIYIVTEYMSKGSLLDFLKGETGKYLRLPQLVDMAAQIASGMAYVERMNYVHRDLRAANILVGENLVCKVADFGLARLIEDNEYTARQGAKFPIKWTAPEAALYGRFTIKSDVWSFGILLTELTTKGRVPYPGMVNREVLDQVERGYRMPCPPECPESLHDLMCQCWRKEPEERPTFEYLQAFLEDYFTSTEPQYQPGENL
Procedure: The compounds were assayed as inhibitors of full length recombinant human Src kinase (from Upstate Biotechnology, cat. no. 14-117) expressed and purified from baculo viral cells. Src kinase activity was monitored by following the incorporation of ^33P from ATP into the tyrosine of a random poly Glu-Tyr polymer substrate of composition, Glu:Tyr=4:1 (Sigma, cat. no. P-0275). The following were the final concentrations of the assay components: 0.05 M HEPES, pH 7.6, 10 mM MgCl2, 2 mM DTT, 0.25 mg/ml BSA, 10 μM ATP (1-2 μCi ^33P-ATP per reaction), 5 mg/ml poly Glu-Tyr, and 1-2 units of recombinant human Src kinase. In a typical assay, all the reaction components with the exception of ATP were pre-mixed and aliquoted into assay plate wells. […] The assay plate was incubated at 30° C. for 10 min before initiating the reaction with ^33P-ATP. After 20 min of reaction, the reactions were quenched with 150 μl of 10% trichloroacetic acid (TCA) containing 20 mM Na3PO4. The quenched samples were then transferred to a 96-well filter plate (Whatman, UNI-Filter GF/F Glass Fiber Filter, cat no. 7700-3310) installed on a filter plate vacuum manifold. Filter plates were washed four times with 10% TCA containing 20 mM Na3PO4 and then 4 times with methanol. 200 μl of scintillation fluid was then added to each well. The plates were sealed and the amount of radioactivity associated with the filters was quantified on a TopCount scintillation counter.

CDK-2/Cyclin A = CDK-2/Cyclin A (Homo sapiens, UniProt P24941); assay: CDK2 inhibition assay (standard coupled enzyme assay); settings: 25 nM CDK-2/Cyclin A; read-out: CDK2 Inhibitory Activity (Ki rating A-C)
How it was run: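 CDK-2/Cyclin A (25 nM final) started the reaction after 10-min, 30° C preincubation of compound (30 μM final) with peptide (100 μM), ATP and coupling enzymes in HEPES pH 7.5.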

[2] = target: T3, Lck kinase purified from bovine thymus (Bos taurus, UniProt Q3ZCM0); assay: Lck inhibition assay (33P incorporation into poly Glu-Tyr); settings: for Ki: 10 μM ATP, read-out: Activity in the Lck Inhibition Assay (Ki rating A-C)
T3 construct: Lck kinase purified from bovine thymus; purchased Upstate Biotechnology 14-106; host or cells: bovine thymus (tissue-purified)
T3 sequence (Q3ZCM0 1-509): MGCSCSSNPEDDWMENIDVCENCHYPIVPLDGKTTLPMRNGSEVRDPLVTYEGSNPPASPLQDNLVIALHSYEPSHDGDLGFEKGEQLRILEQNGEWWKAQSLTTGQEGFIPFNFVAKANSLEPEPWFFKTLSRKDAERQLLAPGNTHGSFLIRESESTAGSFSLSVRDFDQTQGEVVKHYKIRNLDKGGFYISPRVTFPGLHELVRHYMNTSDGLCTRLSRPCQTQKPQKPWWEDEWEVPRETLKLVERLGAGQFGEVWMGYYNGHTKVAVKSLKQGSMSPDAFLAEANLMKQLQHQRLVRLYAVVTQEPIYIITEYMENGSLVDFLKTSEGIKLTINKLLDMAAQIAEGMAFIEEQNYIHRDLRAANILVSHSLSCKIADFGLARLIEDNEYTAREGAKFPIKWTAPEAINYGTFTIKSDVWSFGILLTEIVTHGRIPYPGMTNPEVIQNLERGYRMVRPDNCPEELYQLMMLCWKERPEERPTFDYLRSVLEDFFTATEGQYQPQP
How it was run: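 Filter-binding radiometric assay of 33P transfer from ATP to poly Glu-Tyr (4:1, 5 mg/ml) by bovine thymus Lck in 0.05 M HEPES pH 7.6, 10 mM MgCl2, 2 mM DTT, 0.25 mg/ml BSA, 10 μM ATP. After 10 min at 30° C, reaction started with 33P-ATP, run 20 min, quenched with TCA; filter-bound radioactivity counted by scintillation.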

[3] = target: Glycogen Synthase Kinase 3 (GSK-3) (Homo sapiens, UniProt P49841); assay: GSK-3 inhibition assay (standard coupled enzyme assay); settings: 60 nM GSK-3, 10 μM ATP; read-out: GSK-3 Inhibitory Activity (Ki rating A-C)
Chain of Glycogen Synthase Kinase 3 (GSK-3) (P49841 whole entry): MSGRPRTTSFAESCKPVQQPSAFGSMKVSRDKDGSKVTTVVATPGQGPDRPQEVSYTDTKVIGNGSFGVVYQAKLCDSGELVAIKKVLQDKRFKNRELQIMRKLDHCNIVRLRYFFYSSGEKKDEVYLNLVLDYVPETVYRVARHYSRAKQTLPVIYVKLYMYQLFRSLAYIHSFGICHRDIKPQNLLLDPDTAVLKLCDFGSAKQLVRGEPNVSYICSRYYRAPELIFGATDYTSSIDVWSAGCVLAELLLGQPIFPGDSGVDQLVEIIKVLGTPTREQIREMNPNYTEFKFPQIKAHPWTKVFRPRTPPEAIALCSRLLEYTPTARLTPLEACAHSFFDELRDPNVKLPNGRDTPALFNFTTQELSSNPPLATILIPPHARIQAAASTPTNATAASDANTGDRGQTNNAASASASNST
Procedure: Compounds were screened in the following manner for their ability to inhibit Glycogen Synthase Kinase 3 (GSK-3) using a standard coupled enzyme assay (Fox et al (1998) Protein Sci 7, 2249). To an assay stock buffer solution containing 0.1M HEPES 7.5, 10 mM MgCl2, 25 mM NaCl, 2.5 mM phosphoenolpyruvate, 300 μM NADH, 1 mM DTT, 30 μg/mL pyruvate kinase, 10 μg/mL lactate dehydrogenase, 300 μM peptide (HSSPHQp-SEDEEE, American Peptide, Sunnyvale, Calif.), and 60 nM GSK-3, was added a 30 μM solution of the compound in DMSO and the resulting mixture incubated at 30° C. for 5 min. The reaction was initiated by the addition of 10 μM ATP. The rates of reaction were obtained by monitoring absorbance at 340 nm over a 5 minute read time at 30° C. using a Molecular Devices plate reader (Sunnyvale, Calif.). The IC50 was determined from the rate data as a function of inhibitor concentration.

SMILES | Ki (activated JNK3) [µM] | inhibition at 2 µM [1] [%] | Ki (CDK-2/Cyclin A) [µM] | Ki [1] [µM] | Ki [3] [µM] | further results
COc1cc(-c2ccnc(Nc3ccccc3)n2)cc2c1OCCO2 [Compound I-74] | < 0.1 | 24 to 66 | – | – | – | –
COc1ccc(Nc2nccc(-c3cc(OC)c4c(c3)OCCO4)n2)cc1 [Compound I-78] | < 0.1 | 24 to 66 | – | – | – | –
COc1cc(-c2ccnc(Nc3ccc(F)cc3)n2)cc(OC)c1OC [Compound I-3] | < 0.1 | < 33 | > 5 | – | – | Ki [2]: > 1 µM
COc1cc(-c2ccnc(Nc3ccc(S(N)(=O)=O)cc3)n2)cc(OC)c1OC [Compound I-66] | < 0.1 | – | < 2 | – | < 0.1 | Activity in the Lck Inhibition Assay (percent inhibition rating D-F) ([2]; at a 5 μM inhibitor concentration): E (percent inhibition of between 24% and 66%)
COc1cc(-c2ccnc(Nc3ccc4c(c3)OCO4)n2)cc(OC)c1OC [Compound I-63] | < 0.1 | 24 to 66 | – | – | – | –
COc1cc(-c2ccnc(Nc3ccc(Cl)nc3)n2)cc(OC)c1OC [Compound I-61] | < 0.1 | < 33 | > 5 | – | – | –
COc1cc(-c2ccnc(Nc3cccc(C)c3)n2)cc2c1OCCO2 [Compound I-81] | < 0.1 | 67 to 100 | – | – | – | –
COc1ccc(Nc2nccc(-c3cc(OC)c(OC)c(OC)c3)n2)cc1OC [Compound I-64] | – | 67 to 100 | – | – | 0.1 to 1 | Activity in the JNK3 Inhibition Assay (percent inhibition rating D-F) (activated JNK3; at a 2 μM inhibitor concentration): F (percent inhibition of between 67% and 100%)
COc1cc(-c2ccnc(NC3CCCCC3)n2)cc(OC)c1OC [Compound I-4] | 0.1 to 1 | – | > 5 | > 1 | > 1 | –
COc1cc(-c2ccnc(Nc3cccc(F)c3F)n2)cc(OC)c1OC [Compound I-13] | < 0.1 | 24 to 66 | > 5 | – | – | –
COc1cc(-c2ccnc(Nc3cccc(O)c3)n2)cc(OC)c1OC [Compound I-58] | < 0.1 | 24 to 66 | – | – | – | –
COc1cc(-c2ccnc(Nc3cccc(Cl)c3)n2)cc2c1OCCO2 [Compound I-75] | < 0.1 | 67 to 100 | – | – | < 0.1 | –
COc1cc(-c2ccnc(Nc3ccc(Cl)cc3)n2)cc(OC)c1OC [Compound I-1] | 0.1 to 1 | – | > 5 | > 1 | > 1 | –
COc1cc(-c2ccnc(Nc3cccc(F)c3)n2)cc(OC)c1OC [Compound I-60] | < 0.1 | 67 to 100 | > 5 | – | – | –
COc1cc(-c2ccnc(Nc3ccc(C)cc3)n2)cc2c1OCCO2 [Compound I-82] | < 0.1 | < 33 | – | – | – | –
CCOc1c(OC)cc(-c2ccnc(Nc3cccc(OC)c3)n2)cc1OC [Compound I-50] | < 0.1 | 67 to 100 | – | – | – | –
COc1c(Br)cc(-c2ccnc(Nc3cccc(F)c3)n2)cc1Br [Compound I-48] | 0.1 to 1 | 24 to 66 | – | – | 0.1 to 1 | –
COc1cc(Nc2nccc(-c3cc(OC)c(OC)c(OC)c3)n2)cc(OC)c1 [Compound I-12] | < 0.1 | < 33 | > 5 | – | 0.1 to 1 | –
COc1cc(-c2ccnc(Nc3ccc(F)cc3)n2)cc2c1OCCO2 [Compound I-80] | < 0.1 | 24 to 66 | – | – | – | –
COc1cc(-c2ccnc(Nc3ccc(Cl)cc3)n2)cc2c1OCCO2 [Compound I-76] | < 0.1 | 24 to 66 | – | – | – | –
COc1cc(-c2ccnc(Nc3cccc(F)c3)n2)cc2c1OCCO2 [Compound I-79] | < 0.1 | 24 to 66 | – | – | – | –
COc1cc(-c2ccnc(Nc3cccc(Br)c3)n2)cc(OC)c1OC [Compound I-59] | < 0.1 | 67 to 100 | > 5 | – | < 0.1 | –
COc1cc(-c2ccnc(Nc3ccc4ccccc4c3)n2)cc(OC)c1OC [Compound I-62] | < 0.1 | < 33 | – | – | 0.1 to 1 | –
COc1cc(-c2ccnc(Nc3ccc(Cl)nc3)n2)cc(OC)c1O [Compound I-73] | < 0.1 | 24 to 66 | – | – | – | –

Continued, in another order:

Ki (activated JNK3) [µM] | inhibition at 2 µM [1] [%] | Ki (CDK-2/Cyclin A) [µM] | Ki [1] [µM] | Ki [3] [µM] | SMILES | further results
– | – | – | < 0.1 | > 1 | COc1ccc(-c2cccc(F)c2)cc1Nc1nccc(-c2ccc(OC)c(OC)c2OC)n1 [II-64] | –
– | – | – | 0.1 to 1 | > 1 | COc1ccc(-c2cccc(Cl)c2)cc1Nc1nccc(-c2ccc(OC)c(OC)c2OC)n1 [II-65] | –
– | – | – | < 0.1 | – | COc1ccc(-c2ccnc(Nc3cccc(-c4ccc(C)cc4)c3)n2)c(OC)c1OC [II-63] | Ki [2]: 0.1 to 1 µM
– | – | > 5 | 0.1 to 1 | – | COc1ccc(-c2ccnc(Nc3cccc(-c4ccccc4C)c3)n2)c(OC)c1OC [II-62] | Ki [2]: > 1 µM
– | – | – | < 0.1 | – | COc1ccc(-c2ccnc(Nc3cccc(S(=O)(=O)c4ccccc4)c3)n2)c(OC)c1OC [II-24] | Ki [2]: 0.1 to 1 µM
– | – | – | < 0.1 | < 0.1 | COc1ccc(Nc2nccc(-c3ccc(OC)c(OC)c3OC)n2)cc1-c1cccc(F)c1 [II-69] | –
– | – | – | < 0.1 | – | COc1ccc(-c2ccnc(Nc3cccc(Oc4ccccc4)c3)n2)c(OC)c1OC [II-1] | Ki [2]: < 0.1 µM
– | – | – | > 1 | > 1 | COc1ccc(-c2ccnc(Nc3cc(-c4cccc(Cl)c4)ccc3F)n2)c(OC)c1OC [II-66] | –
– | – | > 5 | – | 0.1 to 1 | COc1ccc(-c2ccnc(Nc3cc(-c4cccc(O)c4)ccc3C)n2)c(OC)c1OC [II-47] | Ki [2]: 0.1 to 1 µM
– | – | – | < 0.1 | < 0.1 | COc1ccc(Nc2nccc(-c3ccc(OC)c(OC)c3OC)n2)cc1-c1cccc(Cl)c1 [II-67] | –
– | – | – | 0.1 to 1 | < 0.1 | COc1ccc(Nc2nccc(-c3ccc(OC)c(OC)c3OC)n2)cc1-c1ccc(Cl)cc1 [II-68] | –
– | – | > 5 | – | > 1 | COc1ccc(Nc2nccc(-c3ccc(OC)c(OC)c3OC)n2)cc1N [II-72] | Ki [2]: > 1 µM
– | – | > 5 | – | 0.1 to 1 | COc1ccc(-c2ccccc2)cc1Nc1nccc(-c2ccc(OC)c(OC)c2OC)n1 [II-48] | Ki [2]: 0.1 to 1 µM
– | – | > 5 | – | > 1 | COc1ccc(-c2ccnc(Nc3cc(-c4cccc(F)c4)ccc3C)n2)c(OC)c1OC [II-45] | Ki [2]: 0.1 to 1 µM

Source: patent US6949544B2, “Inhibitors of c-Jun N-terminal kinases (JNK) and other protein kinases” (Vertex Pharmaceuticals Incorporated, priority 2001, dated 2005)
